Source: US12275957B2, “Next generation designer liver organoids and their methods of preparation and use” (ARIZONA BOARD OF REGENTS ON BEHALF OF ARIZONA STATE …, priority 2018, dated 2025)
Where two headings read alike, the source gives them in different places.

Assays:
[1] = tested on: FXR signaling (CYP7A1, NROB2/SHP, FGF19 expression) in DesLO
Description: (§1) To further delineate the mechanism of FXR-mediated CYP7A1 repression, we tested FXR, NROB2, and FGF19 expression following GW4064 treatment.
(§2) Tissues were harvested and lysed by adding 500 μL Trizol (Life Technologies) directly to the tissue culture well and freezing at −80C. For extraction, lysate was thawed on ice, 100 μL chloroform was added, vortexed for 30 seconds, and centrifuged at 12,000 g for 15 minutes at 4° C. After centrifugation the aqueous phase was transferred to a Qiagen gDNA eliminator column and centrifuged at 10,000 g for 1 minute at 4° C. The flow-through was mixed with an equal volume of 70% EtOH and transferred to an RNEasy mini spin column. The manufacturer protocol for the RNEasy Plus Mini Kit (QIAGEN) was followed for the rest of the procedure. cDNA was synthesized using the high Capacity cDNA reverse transcription (Applied Biosystems). qRT-PCR was performed using the SYBR Green intercalating dye (ThermoFisher Scientific) and previously validated primers (IDT). Expression was normalized to 18S ribosomal RNA and relative gene expression was calculated using 2^−ΔΔCT method.

[2] = tested on: bile acid synthesis in DesLO; experiment: Total bile acid assay in media; assay type: cell-based, human; conditions: addition of GW4064
Description: The cell supernatant was assessed at multiple dilutions to optimize detection, and the assay was performed according to the manufacturer's protocol.

[3] = tested on: FXR signaling (CYP7A1, NROB2/SHP, FGF19 expression) in FeLO; experiment: qRT-PCR of bile acid synthesis / FXR pathway genes in FeLO after addition of FXR agonist; conditions: FeLO cultures
Description: as §1, §2

[4] = tested on: FXR signaling (CYP7A1, NROB2/SHP, FGF19 expression) in DesLO; experiment: qRT-PCR of bile acid synthesis / FXR pathway genes in DesLO after addition of FXR agonist, bile acid or FGF19
Description: as §1, §2

[5] = tested on: Desmin positive stellate-like cells in DesLO; experiment: Fibrogenesis model: Desmin immunofluorescence and qRT-PCR; assay type: cell-based, human; conditions: for Desmin positive population (immunofluorescence staining): 5 ng/mL TGFB1 for 3 days
Text: Multicellular DesLO as a Model for Fibrogenesis: Hepatic fibrosis is a maladaptive multicellular response of liver that is characterized by an excessive accumulation of extracellular matrix. It is a wound healing process, largely mediated by hepatic stellate cells (liver pericytes) which proliferate, deposit collagen, and generate scar tissue in response to injury. Since DesLOs contain a population of stellate-like cells we assessed whether this cell population respond to classical fibrotic stimuli. We induced fibrogenesis via transforming growth factor beta-1 (TGFβ1) or a combination of TGFβ1 and fetal bovine serum (FBS) supplementation to the culture medium. […] It is known that tissue culture treated polystyrene (TCTP) can increase cell stress and stellate cell proliferation.
Cells were grown on Matrigel-coated 8 mm or 12 mm diameter circular glass coverslips and fixed for 20 min in 4% paraformaldehyde (Electron Microscopy Sciences) at room temperature. Coverslips were then washed three times in 200 μl PBS droplets on Parafilm (Pechiney Plastic Packaging Company) followed by 15 min permeabilization in 100 μl of 0.2% Triton X-100 in PBS. Subsequently the coverslips were washed three times in 200 μl in washing buffer (0.05% Tween-20 in PBS) for 5 min and blocked for 20 min in 200 μl wash buffer plus 5% normal donkey serum (Jackson ImmunoResearch Laboratories). The incubation with the primary antibodies was performed for 1 h at room temperature in 30 μl of 5% normal donkey serum in PBS followed by three washes in 200 μl in PBS for 5 min each. The incubation with the secondary antibodies was performed for 1 h at room temperature in 30 μl of 5% normal donkey serum in PBS followed by three washes in 200 μl in PBS for 5 min. Finally, the coverslips were mounted on microscopy glass slides using ProLong Diamond Antifade (Life Technologies, USA), cured overnight at room temperature and then sealed with nail polish. Antibody list and concentrations are included in the supplement.

Compound: C[C@H](CCC(=O)O)[C@H]1CC[C@H]2[C@@H]3[C@H](O)C[C@@H]4C[C@H](O)CC[C@]4(C)[C@H]3CC[C@]12C [CDCA, chenodeoxycholic acid]
- CYP7A1 expression change (qRT-PCR) [1]: expected downregulation of CYP7A1

Compound: CC(C)c1onc(-c2c(Cl)cccc2Cl)c1COc1ccc(/C=C/c2cccc(C(=O)O)c2)c(Cl)c1 [GW4064]
- total bile acid in media [2]: repression of bile acid synthesis
- upregulation of SHP and FGF19 / CYP7A1 repression ([3]; GW4064 treatment): could not be captured
- CYP7A1 repression (real-time qPCR) ([3]; addition of GW4064): not repressed
- upregulation of FGF19 ([4]; GW4064 treatment): > 40 folds
- upregulation of SHP (NROB2) ([4]; GW4064 treatment): > 40 folds
- CYP7A1 repression (real-time qPCR) ([4]; addition of GW4064): 4 fold

Compound: fibroblast growth factor 19 [FGF19]
- CYP7A1 expression change (qRT-PCR) ([4]; addition to the media): expected downregulation of CYP7A1

Compound: transforming growth factor beta-1 [TGFβ1]
- Desmin positive population (immunofluorescence staining) ([5]; DesLO, versus vehicle control): visibly expanded
- Desmin positive population (immunofluorescence staining) ([5]; DesLO, versus vehicle control, listed as TGFB1): increase in expression
- Desmin levels (qRT-PCR) ([5]; DesLO, versus vehicle control): increase
- response to TGFβ1 treatment (Desmin qRT-PCR) ([5]; both FeLO and DesLO): responded modestly
